US8785488B2 (Exelixis Patent Company LLC, priority 2009, dated 2014)
Counter-ions that a name gives are not always drawn.

molecular target: T1, human TGR5 (h-TGR5) (Homo sapiens, UniProt Q8TDU6); experiment: TGR5/CRE-Luciferiase Assay (HEK 293 hTGR5/CRE-Luc cells); type: cell-based; details: HEK 293 hTGR5/CRE-Luc cells, 6 hours incubation, luciferase activity; Table 2; read-out: h-TGR5CRE-Luc EC50 (CRE-Luc)
T1 construct: expressed in transfected cells
T1 sequence (Q8TDU6 1-330): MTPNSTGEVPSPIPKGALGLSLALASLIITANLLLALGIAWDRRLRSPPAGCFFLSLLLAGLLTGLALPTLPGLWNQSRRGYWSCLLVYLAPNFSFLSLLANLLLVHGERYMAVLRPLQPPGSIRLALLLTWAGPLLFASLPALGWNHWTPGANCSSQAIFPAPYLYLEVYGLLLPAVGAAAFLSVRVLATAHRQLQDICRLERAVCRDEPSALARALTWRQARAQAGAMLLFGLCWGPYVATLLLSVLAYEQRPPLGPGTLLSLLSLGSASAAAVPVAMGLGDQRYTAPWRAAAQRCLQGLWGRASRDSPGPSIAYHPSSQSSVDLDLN
Method in brief: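 HEK293 cells stably carrying hTGR5 and a CRE-luciferase reporter were exposed to serially diluted compounds (diluted in DMEM with 5% DMSO) for 6 h. Cells were then lysed in luciferase buffer, luminescence was read, and EC50 values were derived from dose-response curves.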

SMILES | EC50
Fc1ccc(-n2c(Cc3ccc(Cl)c(Cl)c3)nnc2SCc2cccc(Cl)c2F)cc1 [Example 2] | 1000 to 10000 nM
Fc1ccc(CSc2nnc(Cc3ccc(Cl)c(Cl)c3)n2-c2ccc(F)cc2)cc1 [Example 17] | 1000 to 10000 nM
COc1ccc(Cc2nnc(SCc3cccc(C(F)(F)F)c3F)n2-c2ccc(F)cc2)cc1OC [Example 30] | < 100 nM
Fc1ccc(-n2c(Cc3ccc(Cl)c(Cl)c3)nnc2SCc2ccc(F)cc2C(F)(F)F)cc1 [Example 33] | 1000 to 10000 nM
CS(=O)(=O)c1ccc(Cc2nnc(SCc3ccc(F)cc3Cl)n2-c2ccc(F)cc2)cc1 [Example 44] | 1000 to 10000 nM
CC(C)(c1ccc2nccnc2c1)c1nnc(SCc2ccc(Cl)c(-c3nnn[nH]3)c2)n1-c1ccc(F)cc1 [Example 46] | 1000 to 10000 nM

Other lines, results leading:

EC50 | SMILES
1000 to 10000 nM | CC(C)(c1ccc(Cl)cc1)c1nnc(SCc2ccc(F)cc2Cl)n1-c1ccc(F)cc1 [Example 6]
1000 to 10000 nM | Fc1ccc(-n2c(Cc3ccc(F)c(Cl)c3)nnc2SCc2c(F)cccc2Cl)cc1 [Example 15]
1000 to 10000 nM | COc1ccc(Cc2nnc(SCc3ccc(F)cc3Cl)n2-c2ccc(F)cc2)cc1 [Example 28, hydrochloride]
100 to 1000 nM | Fc1ccc(-n2c(Cc3ccc(Cl)c(F)c3)nnc2SCc2c(F)cccc2Cl)cc1 [Example 38]
1000 to 10000 nM | CC(C)(c1ccc2cccnc2c1)c1nnc(SCc2c(F)cc(C(=O)O)cc2F)n1-c1ccc(F)cc1 [Example 50]

same assay, conditions: h-TGR5 CRE-Luc EC50, Table 1; read-out: CRE-Luc (EC50)

SMILES | EC50
COc1ccc(C(C)(C)c2cnc(C(=O)Nc3ccc(Cl)c(Cl)c3)n2-c2ccc(F)cc2)cc1OC [5-{1-[3,4-bis(methyloxy)phenyl]-1-methylethyl}-N-(3,4-dichlorophenyl)-1-(4-fluorophenyl)-1H-imidazole-2-carboxamide] | 1000 to 10000 nM
COc1ccc(C(C)(C)c2cnc(C(=O)NC3CCCCC3)n2-c2ccc(F)cc2)cc1OC [5-{1-[3,4-bis(methyloxy)phenyl]-1-methylethyl}-N-cyclohexyl-1-(4-fluorophenyl)-1H-imidazole-2-carboxamide] | 1000 to 10000 nM
CC(C)(c1ccc(Cl)c(Cl)c1)c1cnc(SCc2ccc(Cl)c(-c3nnn[nH]3)c2)n1-c1cccc(F)c1 [5-{2-chloro-5-[({5-[1-(3,4-dichlorophenyl)-1-methylethyl]-1-(3-fluorophenyl)-1H-imidazol-2-yl}thio)methyl]phenyl}-1H-tetrazole] | 100 to 1000 nM
CC(C)(c1ccc(Cl)c(Cl)c1)c1cnc(COc2ccc(-c3nn[nH]n3)cc2Cl)n1-c1ccc(F)cc1 [5-{3-chloro-4-[({5-[1-(3,4-dichlorophenyl)-1-methylethyl]-1-(4-fluorophenyl)-1H-imidazol-2-yl}methyl)oxy]phenyl}-2H-tetrazole] | 1000 to 10000 nM
CC(C)(c1ccc(Cl)c(Cl)c1)c1cnc(S(=O)(=O)Nc2ccc(F)cc2Cl)n1-c1ccc(F)cc1 [N-(2-chloro-4-fluorophenyl)-5-[1-(3,4-dichlorophenyl)-1-methylethyl]-1-(4-fluorophenyl)-1H-imidazole-2-sulfonamide] | 1000 to 10000 nM
COc1ccc(C(C)(C)c2cnc(CNc3ccc(F)cc3Cl)n2-c2ccc(F)cc2)cc1OC [N-{[5-{1-[3,4-bis(methyloxy)phenyl]-1-methylethyl}-1-(4-fluorophenyl)-1H-imidazol-2-yl]methyl}-2-chloro-4-fluoroaniline] | < 100 nM
COc1ccc(C(C)(C)c2cnc(CNc3ccc(Cl)c(Cl)c3)n2-c2ccc(F)cc2)cc1OC [N-{[5-{1-[3,4-bis(methyloxy)phenyl]-1-methylethyl}-1-(4-fluorophenyl)-1H-imidazol-2-yl]methyl}-3,4-dichloroaniline] | < 100 nM
COc1ccc(C(C)(C)c2cnc(CNc3ccc(F)c(Cl)c3)n2-c2ccc(F)cc2)cc1OC [N-{[5-{1-[3,4-bis(methyloxy)phenyl]-1-methylethyl}-1-(4-fluorophenyl)-1H-imidazol-2-yl]methyl}-3-chloro-4-fluoroaniline] | 100 to 1000 nM
CCOC(=O)c1cc(F)c(CSc2nc(C)c(C(C)(C)c3ccc(Cl)c(OC)c3)n2-c2ccc(F)cc2)c(Cl)c1 [ethyl 3-chloro-4-({[5-{1-[4-chloro-3-(methyloxy)phenyl]-1-methylethyl}-1-(4-fluorophenyl)-4-methyl-1H-imidazol-2-yl]thio}methyl)-5-fluorobenzoate] | 100 to 1000 nM

Other lines, results leading:

EC50 | SMILES
1000 to 10000 nM | COc1ccc(C(C)(C)c2cnc(C(=O)N(C)c3c(F)cccc3Cl)n2-c2ccc(F)cc2)cc1OC [5-{1-[3,4-bis(methyloxy)phenyl]-1-methylethyl}-N-(2-chloro-6-fluorophenyl)-1-(4-fluorophenyl)-N-methyl-1H-imidazole-2-carboxamide]
1000 to 10000 nM | COc1ccc(C(C)(C)c2cnc(C(=O)Nc3ccc(F)c(Cl)c3)n2-c2ccc(F)cc2)cc1OC [5-{1-[3,4-bis(methyloxy)phenyl]-1-methylethyl}-N-(3-chloro-4-fluorophenyl)-1-(4-fluorophenyl)-1H-imidazole-2-carboxamide]
100 to 1000 nM | COc1ccc(C(C)(C)c2cnc(C(=O)NCc3ccc(Cl)c(F)c3)n2-c2ccc(F)cc2)cc1OC [5-{1-[3,4-bis(methyloxy)phenyl]-1-methylethyl}-N-[(4-chloro-3-fluorophenyl)methyl]-1-(4-fluorophenyl)-1H-imidazole-2-carboxamide]
100 to 1000 nM | CC(C)(c1ccc(Cl)c(Cl)c1)c1cnc(SCc2ccc(-c3nnn[nH]3)c(Cl)c2)n1-c1ccc(F)cc1 [5-{2-chloro-4-[({5-[1-(3,4-dichlorophenyl)-1-methylethyl]-1-(4-fluorophenyl)-1H-imidazol-2-yl}thio)methyl]phenyl}-1H-tetrazole]
100 to 1000 nM | CC(C)(c1ccc(Cl)c(Cl)c1)c1cnc(SCc2ccc(-c3nnn[nH]3)c(F)c2)n1-c1ccc(F)cc1 [5-{4-[({5-[1-(3,4-dichlorophenyl)-1-methylethyl]-1-(4-fluorophenyl)-1H-imidazol-2-yl}thio)methyl]-2-fluorophenyl}-1H-tetrazole]
100 to 1000 nM | CC(C)(c1ccc(Cl)c(Cl)c1)c1cnc(SCc2ccc(F)c(-c3nnn[nH]3)c2)n1-c1ccc(F)cc1 [5-{5-[({5-[1-(3,4-dichlorophenyl)-1-methylethyl]-1-(4-fluorophenyl)-1H-imidazol-2-yl}thio)methyl]-2-fluorophenyl}-1H-tetrazole]
100 to 1000 nM | CC(C)(c1ccc(Cl)c(Cl)c1)c1cnc(COc2ccc(C#N)cn2)n1-c1ccc(F)cc1 [6-[({5-[1-(3,4-dichlorophenyl)-1-methylethyl]-1-(4-fluorophenyl)-1H-imidazol-2-yl}methyl)oxy]pyridine-3-carbonitrile]
100 to 1000 nM | CC(C)(c1ccc(Cl)c(Cl)c1)c1cnc(COc2ccc(C(N)=O)cn2)n1-c1ccc(F)cc1 [6-[({5-[1-(3,4-dichlorophenyl)-1-methylethyl]-1-(4-fluorophenyl)-1H-imidazol-2-yl}methyl)oxy]pyridine-3-carboxamide]
100 to 1000 nM | CC(C)(c1ccc(Cl)c(Cl)c1)c1cnc(COc2ccc(C(=O)O)cn2)n1-c1ccc(F)cc1 [6-[({5-[1-(3,4-dichlorophenyl)-1-methylethyl]-1-(4-fluorophenyl)-1H-imidazol-2-yl}methyl)oxy]pyridine-3-carboxylic acid]
100 to 1000 nM | CC(C)(c1ccc(Cl)c(Cl)c1)c1cnc(COc2ccc3ncccc3c2)n1-c1ccc(F)cc1 [6-[({5-[1-(3,4-dichlorophenyl)-1-methylethyl]-1-(4-fluorophenyl)-1H-imidazol-2-yl}methyl)oxy]quinoline]
100 to 1000 nM | CC(C)(c1ccc(Cl)c(Cl)c1)c1cnc(SCc2ccc(F)cc2OCC(=O)O)n1-c1ccc(F)cc1 [({2-[({5-[1-(3,4-dichlorophenyl)-1-methylethyl]-1-(4-fluorophenyl)-1H-imidazol-2-yl}thio)methyl]-5-fluorophenyl}oxy)acetic acid]
100 to 1000 nM | CC(C)(c1ccc(NS(C)(=O)=O)cc1)c1cnc(SCc2c(F)cccc2Cl)n1-c1ccc(F)cc1 [N-(4-{1-[2-{[(2-chloro-6-fluorophenyl)methyl]thio}-1-(4-fluorophenyl)-1H-imidazol-5-yl]-1-methylethyl}phenyl)methanesulfonamide]
100 to 1000 nM | COc1cc(C(C)(C)c2cnc(SCc3ccc(S(=O)(=O)NC(=O)NCCC(=O)O)cc3Cl)n2-c2ccc(F)cc2)ccc1Cl [N-[({[3-chloro-4-({[5-{1-[4-chloro-3-(methyloxy)phenyl]-1-methylethyl}-1-(4-fluorophenyl)-1H-imidazol-2-yl]thio}methyl)phenyl]sulfonyl}amino)carbonyl]-beta-alanine]
1000 to 10000 nM | COc1cc(C(C)(C)c2cnc(SCC3CCN(CC(=O)O)CC3)n2-c2ccc(F)cc2)ccc1Cl [[4-({[5-{1-[4-chloro-3-(methyloxy)phenyl]-1-methylethyl}-1-(4-fluorophenyl)-1H-imidazol-2-yl]thio}methyl)piperidin-1-yl]acetic acid]
1000 to 10000 nM | CC(C)(c1ccc(OCC(=O)O)c(Cl)c1)c1cnc(SCc2ccc(F)cc2Cl)n1-c1ccc(F)cc1 [[(2-chloro-4-{1-[2-{[(2-chloro-4-fluorophenyl)methyl]thio}-1-(4-fluorophenyl)-1H-imidazol-5-yl]-1-methylethyl}phenyl)oxy]acetic acid]
1000 to 10000 nM | CC(C)(c1ccc(OCC(=O)O)cc1)c1cnc(SCc2c(F)cccc2Cl)n1-c1ccc(F)cc1 [[(4-{1-[2-{[(2-chloro-6-fluorophenyl)methyl]thio}-1-(4-fluorophenyl)-1H-imidazol-5-yl]-1-methylethyl}phenyl)oxy]acetic acid]
